Assay results reported in article PMC9532951, “Identification and characterization of a novel SNAT2 (SLC38A2) inhibitor reveals synergy with glucose transport inhibition in cancer cells” (Frontiers in Pharmacology, 2022).
Several values for one entry are separate records, joined by “and”; a condition that tells them apart may be missing. Identical values can stand only once. Like-named read-outs stand apart in the source and are kept apart here.

Legend:
Type in all cases: cell-based, human
SKOV3 cells [1] = test: Growth assay (IncuCyte confluence), SKOV3; design: key to Growth (Figure 6A): % confluence; settings: for Growth (Figure 6A): SKOV3
Method: (§1) Cells were seeded on 96-well flat bottom plates at approximately 3000 cells/well and incubated in growth medium (DMEM/F12 supplemented with 10% FBS, 2 mM glutamine) for 24 h. The next day, the growth medium was aspirated and exchanged with 300 μL/well of growth medium containing compounds at the indicated concentration. For live cell analysis, plates were placed in the IncuCyte system (Essen Bioscience), which was housed in a cell incubator (37°C, humidified atmosphere composed of 95% air and 5% CO2) and confluence measured at 6-h intervals or at the assay endpoint when untreated control cells reached a confluency >90%. Antibiotics (10 U/mL penicillin and 10 μg/ml streptomycin) were included in the treatment solutions.
(§2) Growth curves were generated using the Gompertz function of OriginPro software: y=ae^−e^(−k(x−xc))
(§3) Where a is the maximum confluence or upper asymptote, k is the growth rate coefficient, xc is the time point at which 50% confluence is reached (inflection point) and e is Euler’s number. Cell growth data are shown as % confluence.

MDA-MB-231 cells = test: Growth assay (IncuCyte confluence), MDA-MB-231; design: key to Growth (Figure 6A) / cell confluence (Figure 6F): % confluence; settings: for Growth (Figure 6A): MDA-MB-231
Method: as §1, §2, §3
(§4) Synergism between drug combinations was quantified using ZIP synergy scoring as calculated by SynergyFinder ([Yadav et al., 2015]).

SKOV3 cells [2] = test: [14C]alanine uptake in non-depleted SKOV3 cells; settings: amino acid replete SKOV3 cells
Method: Functional characterisation of plasma membrane transporters in human cancer cells was determined at 37°C using an array of radiolabelled amino acid substrates. Modified Hanks HEPES-buffered salts solution (mHBSS; 137 mM NaCl; 5.4 mM KCl; 2.7 mM K2HPO4; 1 mM CaCl2; 0.5 mM MgCl2; 0.44 mM KH2PO4; 0.4 mM MgSO4; 5 mM D-glucose; 5 mM HEPES; pH 7.4) was used to wash and incubate cells where sodium dependent transport was measured, while N-methyl-D-glucamine (NMDG) and potassium salts substituted sodium in NMDG mHBSS to measure sodium independent uptake. For the assay, cells were seeded in 35 mm dishes and, once confluent, were washed thrice with warm mHBSS solution and incubated with mHBSS containing an 100 µM amino acid at a final specific activity of ≥2000 cpm/nmol (U-[^14C]amino acids were from PerkinElmer). After 6 min, cells were washed thrice with ice-cold mHBSS, lysed with 500 µl of 0.1 M HCl, detached with a cell scraper and triturated. A 400 µl aliquot was used for scintillation counting, while the remainder was saved for protein mass quantification by Bradford assay. Transport rates were normalised to the protein content of the culture dish.

HPAFII cells = test: Growth assay (IncuCyte confluence), HPAFII; design: key to Growth (Figure 6A) / cell confluence (Figure 6F): % confluence
Method: as §1, §2, §3, §4

SNAT1/2 = test: FMP assay: depolarisation by amino acid substrates in amino acid depleted HCC1806 cells

For `Cc1ccc(S(=O)(=O)N(C)c2ccsc2C(=O)NCc2ccccc2C(F)(F)F)cc1` [Compound 57_E, 3-(N-methyl (4-methylphenyl)sulfonamido)-N-(2-trifluoromethylbenzyl)thiophene-2-carboxamide], the “growth of SKOV3 cells” value (SKOV3 cells [1]; 57E 20 µM alone) was “did not slow growth”, the tolerated concentration (SKOV3 cells [1]; SKOV3, growth medium) was “up to 30 μM” and the “Growth (Figure 6A)” value (SKOV3 cells [1]; concentration 1) was 88.8 and 91.35 and 86.25. The “Growth (Figure 6A)” value (SKOV3 cells [1]; concentration 3) was 85.9 and 94.3 and 88.85, the “Growth (Figure 6A)” value (SKOV3 cells [1]; concentration 10) was 89 and 93.8 and 85 and the “Growth (Figure 6A)” value (SKOV3 cells [1]; concentration 30) was 64.8 and 80.1 and 77.7. The “Growth (Figure 6A)” value (SKOV3 cells [1]; concentration 100) was 70.05 and 72.4 and 76.75, the tolerated concentration (MDA-MB-231 cells; MDA-MB-231, growth medium) was “up to 30 μM” and the “Growth (Figure 6A)” value (MDA-MB-231 cells; concentration 1) was 82.35 and 90.35 and 97.85. The “Growth (Figure 6A)” value (MDA-MB-231 cells; concentration 3) was 76.3 and 97.1 and 98.3, the “Growth (Figure 6A)” value (MDA-MB-231 cells; concentration 10) was 70.5 and 94.85 and 92.9 and the “Growth (Figure 6A)” value (MDA-MB-231 cells; concentration 30) was 68.4 and 70.75 and 88.35. For the same molecule, the “Growth (Figure 6A)” value (MDA-MB-231 cells; concentration 100) was 57.95 and 91.15 and 66.7, the “inhibition of [14C]alanine uptake” value (SKOV3 cells [2]) was “did not inhibit any transporter in this cell line” and the tolerated concentration (HPAFII cells) was ≤ 100 µM. For the same molecule, the “Growth (Figure 6A)” value (HPAFII cells; concentration 1) was 93.8 and 96.25 and 96.4, the “Growth (Figure 6A)” value (HPAFII cells; concentration 3) was 93.35 and 98.85 and 97.6 and the “Growth (Figure 6A)” value (HPAFII cells; concentration 10) was 91.1 and 94.2 and 97.05. The “Growth (Figure 6A)” value (HPAFII cells; concentration 30) was 73 and 75.75 and 89.85, the “Growth (Figure 6A)” value (HPAFII cells; concentration 100) was 46.05 and 59.8 and 57.25 and the tolerated concentration (HPAFII cells; growth medium) was “up to 30 μM”.

`NC(=O)CC[C@H](N)C(=O)O` [Glutamine, glutamine] was tested, and the “FMP response as substrate” value (SNAT1/2; 1 mM) was “strongest response”, the Km (SNAT1/2; FMP signal plateau vs glutamine concentration, HCC1806 AA- (24h)) was 120 ± 10 µM and the FMP fluorescence reading (SNAT1/2; glutamine 0.01mM, t=60 s) was 68858 and 69253 and 69708. The FMP fluorescence reading (SNAT1/2; glutamine 0.01mM, t=75 s) was 69325 and 69681 and 70188, the FMP fluorescence reading (SNAT1/2; glutamine 0.01mM, t=90 s) was 69269 and 70070 and 70405 and the FMP fluorescence reading (SNAT1/2; glutamine 0.01mM, t=105 s) was 69763 and 69788 and 70466. For the same molecule, the FMP fluorescence reading (SNAT1/2; glutamine 0.03mM (c24-c26), t=60 s) was 77460 and 80576 and 83628, the FMP fluorescence reading (SNAT1/2; glutamine 0.03mM (c24-c26), t=75 s) was 77730 and 80978 and 84391 and the FMP fluorescence reading (SNAT1/2; glutamine 0.03mM (c24-c26), t=90 s) was 78184 and 81512 and 84232. The FMP fluorescence reading (SNAT1/2; glutamine 0.03mM (c24-c26), t=105 s) was 78227 and 82096 and 85186, the FMP fluorescence reading (SNAT1/2; glutamine 0.03mM (last group, c32-c34), t=60 s) was 64072 and 69800 and 70295 and the FMP fluorescence reading (SNAT1/2; glutamine 0.03mM (last group, c32-c34), t=75 s) was 63883 and 70289 and 71073. For the same molecule, the FMP fluorescence reading (SNAT1/2; glutamine 0.03mM (last group, c32-c34), t=90 s) was 63947 and 70196 and 70790, the FMP fluorescence reading (SNAT1/2; glutamine 0.03mM (last group, c32-c34), t=105 s) was 64771 and 70484 and 71450 and the FMP fluorescence reading (SNAT1/2; glutamine 0.1mM, t=60 s) was 88925 and 96285 and 98180. For the same molecule, the FMP fluorescence reading (SNAT1/2; glutamine 0.1mM, t=75 s) was 90234 and 97546 and 98972, the FMP fluorescence reading (SNAT1/2; glutamine 0.1mM, t=90 s) was 91221 and 98690 and 100400 and the FMP fluorescence reading (SNAT1/2; glutamine 0.1mM, t=105 s) was 92076 and 98971 and 100952. The FMP fluorescence reading (SNAT1/2; glutamine 0.3mM, t=60 s) was 99455 and 107961 and 111369, the FMP fluorescence reading (SNAT1/2; glutamine 0.3mM, t=75 s) was 100398 and 109749 and 113586 and the FMP fluorescence reading (SNAT1/2; glutamine 0.3mM, t=90 s) was 101543 and 111206 and 114721. For the same molecule, the FMP fluorescence reading (SNAT1/2; glutamine 0.3mM, t=105 s) was 102418 and 111967 and 115020, the FMP fluorescence reading (SNAT1/2; glutamine 1mM, t=60 s) was 112569 and 120148 and 129663 and the FMP fluorescence reading (SNAT1/2; glutamine 1mM, t=75 s) was 115039 and 122576 and 131835. The FMP fluorescence reading (SNAT1/2; glutamine 1mM, t=90 s) was 116433 and 124735 and 133470, the FMP fluorescence reading (SNAT1/2; glutamine 1mM, t=105 s) was 117747 and 125438 and 134724 and the FMP fluorescence reading (SNAT1/2; glutamine 1mM, t=120 s) was 118812 and 126597 and 134693. The FMP fluorescence reading (SNAT1/2; glutamine 3mM, t=60 s) was 133412 and 124199 and 129325, the FMP fluorescence reading (SNAT1/2; glutamine 3mM, t=75 s) was 135706 and 127374 and 131981 and the FMP fluorescence reading (SNAT1/2; glutamine 3mM, t=90 s) was 138077 and 129014 and 134980. For the same molecule, the FMP fluorescence reading (SNAT1/2; glutamine 3mM, t=105 s) was 139888 and 130819 and 136553, the FMP fluorescence reading (SNAT1/2; glutamine 3mM, t=120 s) was 140944 and the FMP fluorescence reading (SNAT1/2; glutamine 10mM, t=60 s) was 123199 and 132978 and 133617. The FMP fluorescence reading (SNAT1/2; glutamine 10mM, t=75 s) was 127611 and 136168 and 137553, the FMP fluorescence reading (SNAT1/2; glutamine 10mM, t=90 s) was 130129 and 138788 and 140464 and the FMP fluorescence reading (SNAT1/2; glutamine 10mM, t=105 s) was 132559 and 141221 and 142567.
